# Patent EP4635500A1, “THERAPEUTIC AGENT FOR BACTERIAL INFECTION” (Sumitomo Pharma Co., Ltd., priority 2022, dated 2024)
# System: Enterobacterales
# Experiment: MIC, broth microdilution, CDC/FDA Antibiotic Resistance Isolate Bank (Example 7, Tables 8, 11, 12)
# Type: cell-based
# [1] = 154 strains of Enterobacterales
substance,measurement,setting,value
colistin,MIC50,[1],0.5 mg/L
same,MIC80,[1],8 mg/L
same,MIC90,[1],>64 mg/L
same,MIC,"Citrobacter fremidii, KUB No. 5613, AR Bank # 116",1 mg/L
same,MIC,"Enterobacter aerogenes, KUB No. 5559, AR Bank # 62",8 mg/L
same,MIC,"Enterobacter aerogenes, KUB No. 5571, AR Bank # 74",0.5 mg/L
same,MIC,"Enterobacter cloacae KUB No. 5792, AR Bank #448",0.5 mg/L
same,MIC,"Enterobacter cloacae KUB No. 5807, AR Bank #501",0.5 mg/L
same,MIC,"Enterobacter cloacae KUB No. 5808, AR Bank #502",0.5 mg/L
same,MIC,"Enterobacter cloacae complex, KUB No. 5661, AR Bank # 164",0.5 mg/L
same,MIC,"Enterobacter cloacae group, KUB No. 5629, AR Bank # 132",1 mg/L
same,MIC,"Enterobacter cloacae, KUB No. 5529, AR Bank# 32",0.5 mg/L
same,MIC,"Enterobacter cloacae, KUB No. 5535, AR Bank# 38",0.5 mg/L
same,MIC,"Enterobacter cloacae, KUB No. 5557, AR Bank# 60",0.5 mg/L
same,MIC,"Enterobacter cloacae, KUB No. 5562, AR Bank # 65",0.5 mg/L
same,MIC,"Enterobacter cloacae, KUB No. 5570, AR Bank # 73",8 mg/L
same,MIC,"Enterobacter cloacae, KUB No. 5590, AR Bank # 93",1 mg/L
same,MIC,"Enterobacter cloacae, KUB No. 5660, AR Bank # 163",8 mg/L
same,MIC,"Enterobacter cloacae, KUB No. 5761, AR Bank # 365",1 mg/L
same,MIC,"Enterobacter cloacae, KUB No. 5763, AR Bank # 367",0.5 mg/L
same,MIC,"Enterobacter cloacae, KUB No. 5778, AR Bank # 432",0.5 mg/L
same,MIC,"Escherichia coli, KUB No. 5545, AR Bank# 48",0.5 mg/L
same,MIC,"Escherichia coli, KUB No. 5552, AR Bank# 55",0.5 mg/L
same,MIC,"Escherichia coli, KUB No. 5555, AR Bank# 58",0.5 mg/L
same,MIC,"Escherichia coli, KUB No. 5564, AR Bank # 67",1 mg/L
same,MIC,"Escherichia coli, KUB No. 5578, AR Bank # 81",0.5 mg/L
same,MIC,"Escherichia coli, KUB No. 5581, AR Bank # 84",0.5 mg/L
same,MIC,"Escherichia coli, KUB No. 5586, AR Bank # 89",0.5 mg/L
same,MIC,"Escherichia coli, KUB No. 5601, AR Bank # 104",0.5 mg/L
same,MIC,"Escherichia coli, KUB No. 5611, AR Bank # 114",0.5 mg/L
same,MIC,"Escherichia coli, KUB No. 5615, AR Bank # 118",1 mg/L
same,MIC,"Escherichia coli, KUB No. 5616, AR Bank # 119",0.5 mg/L
same,MIC,"Escherichia coli, KUB No. 5764, AR Bank # 368",0.5 mg/L
same,MIC,"Escherichia coli, KUB No. 5765, AR Bank # 369",0.5 mg/L
same,MIC,"Escherichia coli, KUB No. 5768, AR Bank # 372",0.5 mg/L
same,MIC,"Escherichia coli, KUB No. 5769, AR Bank # 373",0.5 mg/L
same,MIC,"Escherichia coli, KUB No. 5770, AR Bank # 374",0.5 mg/L
same,MIC,"Escherichia coli, KUB No. 5780, AR Bank # 434",0.5 mg/L
same,MIC,"Escherichia, KUB No. 57, AR Bank # 436 (row cut off)",0.2 mg/L
same,MIC,"Klebsiella oxytoca, KUB No. 5568, AR Bank # 71",0.5 mg/L
same,MIC,"Klebsiella oxytoca, KUB No. 5776, AR Bank # 380",0.5 mg/L
same,MIC,"Klebsiella ozaenae, KUB No. 5548, AR Bank# 51",0.5 mg/L
same,MIC,"Klebsiella ozaenae, KUB No. 5593, AR Bank # 96",1 mg/L
same,MIC,"Klebsiella pneumoniae KUB No. 5784, AR Bank #438",0.5 mg/L
same,MIC,"Klebsiella pneumoniae KUB No. 5797, AR Bank #453",0.5 mg/L
same,MIC,"Klebsiella pneumoniae KUB No. 5809, AR Bank #504",1 mg/L
same,MIC,"Klebsiella pneumoniae KUB No. 5810, AR Bank #505",1 mg/L
same,MIC,"Klebsiella pneumoniae KUB No. 5811, AR Bank #506",0.5 mg/L
same,MIC,"Klebsiella pneumoniae KUB No. 5812, AR Bank #507",8 mg/L
same,MIC,"Klebsiella pneumoniae KUB No. 5827, AR Bank #522",32 mg/L
same,MIC,"Klebsiella pneumoniae KUB No. 5828, AR Bank #523",4 mg/L
same,MIC,"Klebsiella pneumoniae KUB No. 5829, AR Bank #524",2 mg/L
same,MIC,"Klebsiella pneumoniae KUB No. 5830, AR Bank #525",16 mg/L
same,MIC,"Klebsiella pneumoniae, KUB No. 55, AR Bank# 47",64 mg/L
same,MIC,"Klebsiella pneumoniae, KUB No. 5531, AR Bank# 34",0.5 mg/L
same,MIC,"Klebsiella pneumoniae, KUB No. 5536, AR Bank# 39",0.5 mg/L
same,MIC,"Klebsiella pneumoniae, KUB No. 5537, AR Bank# 40",4 mg/L
same,MIC,"Klebsiella pneumoniae, KUB No. 5543, AR Bank# 46",4 mg/L
same,MIC,"Klebsiella pneumoniae, KUB No. 5546, AR Bank# 49",0.5 mg/L
same,MIC,"Klebsiella pneumoniae, KUB No. 5563, AR Bank # 66",0.5 mg/L
same,MIC,"Klebsiella pneumoniae, KUB No. 5565, AR Bank # 68",1 mg/L
same,MIC,"Klebsiella pneumoniae, KUB No. 5572, AR Bank # 75",0.5 mg/L
same,MIC,"Klebsiella pneumoniae, KUB No. 5577, AR Bank # 80",0.5 mg/L
same,MIC,"Klebsiella pneumoniae, KUB No. 5584, AR Bank # 87",64 mg/L
same,MIC,"Klebsiella pneumoniae, KUB No. 5594, AR Bank # 97",8 mg/L
same,MIC,"Klebsiella pneumoniae, KUB No. 5603, AR Bank # 106",32 mg/L
same,MIC,"Klebsiella pneumoniae, KUB No. 5604, AR Bank # 107",0.5 mg/L
same,MIC,"Klebsiella pneumoniae, KUB No. 5606, AR Bank # 109",32 mg/L
same,MIC,"Klebsiella pneumoniae, KUB No. 5609, AR Bank # 112",0.5 mg/L
